Experimental data from ChEMBL document CHEMBL4229513, “Decoy peptides derived from the extracellular domain of toll-like receptor 2 (TLR2) show anti-inflammatory properties” (Bioorg Med Chem, 2018).
Blank lines part the entries; values can stand above or below the molecule they belong to. Activity calls are given as the source filed them. The calls are words filed in the database; no cut-off is given here.

What was measured:
Format in all cases: cell-based
[1] = molecular target: T1, Toll-like receptor 1/2 (Mus musculus) (UniProt Q9QUN7+Q9EPQ1); experiment: Antagonist activity at TLR2/TLR1 in mouse BMDM assessed as inhibition of Rhodamine-labeled Pam3CSK4-stimulated receptor internalization at 1 uM preincubated for 1 hr followed by Rhodamine-Pam3CSK4 stimulation for 20 mins by FACS analysis
[2] = molecular target: T2, Toll-like receptor 1/2 (Homo sapiens, UniProt O60603+Q15399); experiment: Antagonist activity at FLAG-tagged human TLR2/TLR1 expressed in HEK293 cells assessed as inhibition of Pam3CSK4-stimulated JNK phosphorylation at Thr183/Tyr185 residues at 25 uM preincubated for 1 hr followed by Pam3CSK4 stimulation for 35 mins by immunoblot analysis
[3] = molecular target: T2, Toll-like receptor 1/2; experiment: Antagonist activity at FLAG-tagged human TLR2/TLR1 expressed in HEK293 cells assessed as inhibition of Pam3CSK4-stimulated MAPK p38 phosphorylation at Thr180/Tyr182 residues at 25 uM preincubated for 1 hr followed by Pam3CSK4 stimulation for 35 mins by immunoblot analysis
[4] = molecular target: T2, Toll-like receptor 1/2; experiment: Antagonist activity at FLAG-tagged human TLR2/TLR1 expressed in HEK293 cells co-expressing pGL3-Elam.luc assessed as inhibition of Pam3CSK4-stimulated NF-kappaB activation at 50 uM preincubated for 1 hr followed by Pam3CSK4 stimulation for 5 hrs by luciferase reporter gene assay relative to control
[5] = molecular target: T1, Toll-like receptor 1/2 (Mus musculus); experiment: Antagonist activity at TLR2/TLR1 in mouse BMDM assessed as Rhodamine-labeled Pam3CSK4-stimulated receptor internalization at 50 uM preincubated for 1 hr followed by Rhodamine-Pam3CSK4 stimulation for 20 mins by FACS analysis relative to control; parameters: scale not given: the % may be the effect or the level left
[6] = molecular target: T2, Toll-like receptor 1/2; experiment: Antagonist activity at TLR2/TLR1 in human PBMC assessed as inhibition of Pam3CSK4-stimulated TNFalpha production at 50 uM preincubated with cells followed by overnight Pam3CSK4 stimulation by ELISA relative to control
[7] = molecular target: T2, Toll-like receptor 1/2; experiment: Antagonist activity at FLAG-tagged human TLR2/YFP-tagged TLR1 expressed in HEK293 cells assessed as inhibition of Pam3CSK4-stimulated TLR1/TLR2 heterodimerization at 25 uM preincubated for 1 hr followed by Pam3CSK4 stimulation for 15 mins by immunoblot analysis
[8] = molecular target: T2, Toll-like receptor 1/2; experiment: Antagonist activity at FLAG-tagged human TLR2/TLR1 expressed in HEK293 cells co-expressing pGL3-Elam.luc assessed as inhibition of Pam3CSK4-stimulated NF-kappaB activation preincubated for 1 hr followed by Pam3CSK4 stimulation for 5 hrs by luciferase reporter gene assay
[9] = molecular target: T1, Toll-like receptor 1/2 (Mus musculus); experiment: Antagonist activity at TLR2/TLR1 in mouse BMDM assessed as inhibition of Pam3CSK4-stimulated TNFalpha production by measuring TNFalpha level at 25 uM preincubated for 1 hr followed by Pam3CSK4 stimulation for 11 hrs by ELISA relative to control; parameters: scale not given: the % may be the effect or the level left
[10] = molecular target: TLR7 and TLR8 (Mus musculus) (UniProt P58681+P58682); experiment: Antagonist activity at TLR7/TLR8 in mouse BMDM assessed as inhibition of R848-stimulated TNFalpha production at 25 uM preincubated for 1 hr followed by R848 stimulation for 11 hrs by ELISA
[11] = molecular target: T2, Toll-like receptor 1/2; experiment: Antagonist activity at TLR2/TLR1 in human THP1 cells assessed as inhibition of Pam3CSK4-stimulated non-canonical NF-kB pathway by measuring reduction in p52 level at 50 uM preincubated for 1 hr followed by Pam3CSK4 stimulation for 2 hrs by immunoblot analysis
[12] = test system: HEK293; experiment: Cytotoxicity against HEK293 cells at 100 uM after overnight incubation by CCK8 assay; conditions: human, hek293, 100 µM
[13] = molecular target: T3, Toll-like receptor 3 (Mus musculus) (UniProt Q99MB1); experiment: Antagonist activity at TLR3 in mouse BMDM assessed as inhibition of poly I:C-stimulated TNFalpha production at 25 uM preincubated for 1 hr followed by poly I:C stimulation for 11 hrs by ELISA
T3 sequence (whole entry): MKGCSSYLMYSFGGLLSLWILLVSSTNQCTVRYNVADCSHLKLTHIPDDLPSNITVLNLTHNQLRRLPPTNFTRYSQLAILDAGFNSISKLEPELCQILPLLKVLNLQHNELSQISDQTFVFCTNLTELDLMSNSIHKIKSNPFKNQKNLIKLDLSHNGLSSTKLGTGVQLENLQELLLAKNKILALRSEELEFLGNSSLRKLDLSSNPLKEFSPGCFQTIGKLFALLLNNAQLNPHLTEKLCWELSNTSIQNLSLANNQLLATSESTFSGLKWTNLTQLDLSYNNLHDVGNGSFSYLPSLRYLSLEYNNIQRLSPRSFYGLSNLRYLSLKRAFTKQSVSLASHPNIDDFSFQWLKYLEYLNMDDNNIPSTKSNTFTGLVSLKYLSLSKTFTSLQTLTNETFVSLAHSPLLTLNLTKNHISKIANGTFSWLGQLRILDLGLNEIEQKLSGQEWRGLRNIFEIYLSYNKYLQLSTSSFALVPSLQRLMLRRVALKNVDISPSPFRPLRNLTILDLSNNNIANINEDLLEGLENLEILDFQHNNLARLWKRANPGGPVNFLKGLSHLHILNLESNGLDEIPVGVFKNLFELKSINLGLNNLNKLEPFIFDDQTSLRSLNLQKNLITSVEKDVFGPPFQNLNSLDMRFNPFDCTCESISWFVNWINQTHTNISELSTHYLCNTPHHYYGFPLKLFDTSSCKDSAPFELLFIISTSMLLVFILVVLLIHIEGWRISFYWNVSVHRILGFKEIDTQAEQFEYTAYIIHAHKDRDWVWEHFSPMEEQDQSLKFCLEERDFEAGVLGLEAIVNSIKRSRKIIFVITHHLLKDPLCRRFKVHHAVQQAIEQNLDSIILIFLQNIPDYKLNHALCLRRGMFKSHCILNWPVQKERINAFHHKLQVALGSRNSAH

[14] = molecular target: T2, Toll-like receptor 1/2; experiment: Antagonist activity at FLAG-tagged human TLR2/TLR1 expressed in HEK293 cells assessed as inhibition of Pam3CSK4-stimulated MAPK p38 phosphorylation at Thr180/Tyr182 residues at 50 uM preincubated for 1 hr followed by Pam3CSK4 stimulation for 35 mins by immunoblot analysis
[15] = molecular target: T2, Toll-like receptor 1/2; experiment: Antagonist activity at FLAG-tagged human TLR2/TLR1 expressed in HEK293 cells assessed as inhibition of Pam3CSK4-stimulated IkBalpha degradation at 50 uM preincubated for 1 hr followed by Pam3CSK4 stimulation for 35 mins by immunoblot analysis
[16] = molecular target: T1, Toll-like receptor 1/2 (Mus musculus); experiment: Antagonist activity at TLR2/TLR1 in mouse BMDM assessed as inhibition of Rhodamine-labeled Pam3CSK4-stimulated receptor internalization at 50 uM preincubated for 1 hr followed by Rhodamine-Pam3CSK4 stimulation for 20 mins by DAPI staining based phase contrast fluorescence microscopic method
[17] = test system: BMDM; experiment: Cytotoxicity against mouse BMDM at 100 uM after overnight incubation by CCK8 assay
[18] = molecular target: T4, Toll-like receptor 4 (Mus musculus) (UniProt Q9QUK6); experiment: Antagonist activity at TLR4 in mouse BMDM assessed as inhibition of LPS-stimulated TNFalpha production at 25 uM preincubated for 1 hr followed by LPS stimulation for 11 hrs by ELISA
T4 sequence (whole entry): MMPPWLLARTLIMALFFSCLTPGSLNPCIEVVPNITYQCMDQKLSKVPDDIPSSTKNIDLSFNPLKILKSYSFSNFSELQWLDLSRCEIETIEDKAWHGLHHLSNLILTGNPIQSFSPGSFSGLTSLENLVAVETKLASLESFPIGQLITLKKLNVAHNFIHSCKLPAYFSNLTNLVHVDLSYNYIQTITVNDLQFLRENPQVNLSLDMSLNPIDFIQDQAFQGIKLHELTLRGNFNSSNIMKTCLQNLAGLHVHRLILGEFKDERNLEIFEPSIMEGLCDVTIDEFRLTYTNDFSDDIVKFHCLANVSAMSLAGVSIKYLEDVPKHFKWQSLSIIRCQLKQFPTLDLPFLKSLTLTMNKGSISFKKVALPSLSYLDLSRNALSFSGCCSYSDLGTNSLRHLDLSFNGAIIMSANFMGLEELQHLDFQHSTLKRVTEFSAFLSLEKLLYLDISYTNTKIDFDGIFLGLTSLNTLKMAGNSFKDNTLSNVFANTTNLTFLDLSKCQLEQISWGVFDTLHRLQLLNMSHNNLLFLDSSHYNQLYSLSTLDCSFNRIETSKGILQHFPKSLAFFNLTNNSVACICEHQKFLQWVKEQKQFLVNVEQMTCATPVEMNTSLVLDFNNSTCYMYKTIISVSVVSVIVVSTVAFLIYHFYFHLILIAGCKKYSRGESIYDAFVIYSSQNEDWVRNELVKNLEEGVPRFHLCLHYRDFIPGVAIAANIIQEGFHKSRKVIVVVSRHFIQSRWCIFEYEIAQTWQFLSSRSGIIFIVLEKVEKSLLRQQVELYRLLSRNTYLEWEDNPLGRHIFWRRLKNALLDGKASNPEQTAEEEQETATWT

[19] = test system: THP-1; experiment: Cytotoxicity against human THP1 cells at 100 uM after overnight incubation by CCK8 assay; conditions: thp-1, 100 µM
[20] = molecular target: T2, Toll-like receptor 1/2; experiment: Antagonist activity at TLR2/TLR1 in human PBMC assessed as inhibition of Pam3CSK4-stimulated IL-10 production by measuring IL-10 level at 100 uM preincubated with cells followed by overnight Pam3CSK4 stimulation by ELISA (reference value: 794 pg/ml)
[21] = molecular target: TLR2/TLR6 (Homo sapiens) (UniProt O60603+Q9Y2C9); experiment: Antagonist activity at FLAG-tagged human TLR2/TLR6 expressed in HEK293 cells co-expressing pGL3-Elam.luc assessed as inhibition of Pam2CSK4-stimulated NF-kappaB activation preincubated for 1 hr followed by Pam2CSK4 stimulation for 5 hrs by luciferase reporter gene assay
[22] = molecular target: T2, Toll-like receptor 1/2; experiment: Antagonist activity at FLAG-tagged human TLR2/TLR1 expressed in HEK293 cells co-expressing pGL3-Elam.luc assessed as Pam3CSK4-stimulated NF-kappaB activation at 50 uM preincubated for 1 hr followed by Pam3CSK4 stimulation for 5 hrs by luciferase reporter gene assay relative to control; parameters: scale not given: the % may be the effect or the level left
[23] = molecular target: T2, Toll-like receptor 1/2; experiment: Antagonist activity at FLAG-tagged human TLR2/TLR1 expressed in HEK293 cells assessed as inhibition of Pam3CSK4-stimulated JNK phosphorylation at Thr183/Tyr185 residues at 50 uM preincubated for 1 hr followed by Pam3CSK4 stimulation for 35 mins by immunoblot analysis
[24] = molecular target: T2, Toll-like receptor 1/2; experiment: Antagonist activity at TLR2/TLR1 in human PBMC assessed as inhibition of Pam3CSK4-stimulated IL-10 production at 100 uM preincubated with cells followed by overnight Pam3CSK4 stimulation by ELISA

Sequence of TLR7 and TLR8 (Mus musculus) (P58681 whole entry, looked up): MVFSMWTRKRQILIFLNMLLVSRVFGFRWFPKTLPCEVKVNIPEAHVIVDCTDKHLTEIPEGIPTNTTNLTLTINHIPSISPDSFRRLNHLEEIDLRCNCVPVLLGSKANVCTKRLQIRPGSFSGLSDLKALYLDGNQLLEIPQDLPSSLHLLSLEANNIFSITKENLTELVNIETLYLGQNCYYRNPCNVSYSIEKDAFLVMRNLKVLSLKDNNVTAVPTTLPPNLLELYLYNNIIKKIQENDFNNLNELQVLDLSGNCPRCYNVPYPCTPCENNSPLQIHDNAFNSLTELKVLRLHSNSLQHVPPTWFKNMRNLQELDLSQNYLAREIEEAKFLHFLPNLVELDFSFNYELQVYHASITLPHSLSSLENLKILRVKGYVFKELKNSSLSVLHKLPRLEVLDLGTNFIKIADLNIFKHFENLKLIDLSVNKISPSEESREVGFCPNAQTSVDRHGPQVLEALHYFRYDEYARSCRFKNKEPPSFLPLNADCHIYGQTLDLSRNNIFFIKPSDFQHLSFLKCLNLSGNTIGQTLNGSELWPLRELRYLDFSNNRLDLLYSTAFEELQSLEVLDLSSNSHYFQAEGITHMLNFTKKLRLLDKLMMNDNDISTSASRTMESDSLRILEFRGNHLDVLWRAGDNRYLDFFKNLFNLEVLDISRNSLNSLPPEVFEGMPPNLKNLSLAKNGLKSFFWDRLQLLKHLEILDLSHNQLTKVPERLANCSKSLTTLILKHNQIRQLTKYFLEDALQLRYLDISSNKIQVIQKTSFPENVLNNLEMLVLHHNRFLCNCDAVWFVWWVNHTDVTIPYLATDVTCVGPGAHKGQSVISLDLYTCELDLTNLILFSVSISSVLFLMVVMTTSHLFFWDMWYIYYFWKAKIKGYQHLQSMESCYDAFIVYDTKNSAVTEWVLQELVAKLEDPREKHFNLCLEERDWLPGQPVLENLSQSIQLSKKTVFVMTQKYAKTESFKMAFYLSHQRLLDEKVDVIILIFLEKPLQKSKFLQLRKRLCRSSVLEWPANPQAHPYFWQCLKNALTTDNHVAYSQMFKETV
Sequence of TLR7 and TLR8 (Mus musculus) (P58682 whole entry, looked up): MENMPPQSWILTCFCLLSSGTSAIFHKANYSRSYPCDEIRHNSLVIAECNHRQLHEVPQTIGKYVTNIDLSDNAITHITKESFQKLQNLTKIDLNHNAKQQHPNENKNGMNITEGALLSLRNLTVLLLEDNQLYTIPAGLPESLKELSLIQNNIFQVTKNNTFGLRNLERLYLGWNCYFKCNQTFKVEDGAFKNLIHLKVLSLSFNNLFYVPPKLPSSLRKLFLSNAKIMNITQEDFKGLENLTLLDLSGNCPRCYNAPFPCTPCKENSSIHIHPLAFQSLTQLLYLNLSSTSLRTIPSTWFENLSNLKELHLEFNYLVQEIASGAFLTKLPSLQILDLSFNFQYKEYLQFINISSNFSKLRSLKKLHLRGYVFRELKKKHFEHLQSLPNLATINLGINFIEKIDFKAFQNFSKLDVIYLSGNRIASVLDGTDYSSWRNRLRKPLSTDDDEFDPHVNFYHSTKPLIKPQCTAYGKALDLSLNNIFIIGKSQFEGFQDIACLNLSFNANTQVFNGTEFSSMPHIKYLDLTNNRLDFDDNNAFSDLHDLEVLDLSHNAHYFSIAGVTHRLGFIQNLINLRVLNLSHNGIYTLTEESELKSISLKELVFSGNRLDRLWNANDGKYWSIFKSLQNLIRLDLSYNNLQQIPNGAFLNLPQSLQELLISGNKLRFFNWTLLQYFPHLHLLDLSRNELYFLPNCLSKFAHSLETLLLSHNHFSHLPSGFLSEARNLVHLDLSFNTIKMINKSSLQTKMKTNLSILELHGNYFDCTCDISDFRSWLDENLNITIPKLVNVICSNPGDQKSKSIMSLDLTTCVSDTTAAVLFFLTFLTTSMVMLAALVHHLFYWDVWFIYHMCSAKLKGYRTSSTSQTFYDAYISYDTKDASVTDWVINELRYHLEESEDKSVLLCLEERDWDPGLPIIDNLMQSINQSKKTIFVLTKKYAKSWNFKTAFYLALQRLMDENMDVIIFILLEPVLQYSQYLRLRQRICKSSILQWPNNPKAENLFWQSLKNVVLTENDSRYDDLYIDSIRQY
T2 sequence (O60603 whole entry): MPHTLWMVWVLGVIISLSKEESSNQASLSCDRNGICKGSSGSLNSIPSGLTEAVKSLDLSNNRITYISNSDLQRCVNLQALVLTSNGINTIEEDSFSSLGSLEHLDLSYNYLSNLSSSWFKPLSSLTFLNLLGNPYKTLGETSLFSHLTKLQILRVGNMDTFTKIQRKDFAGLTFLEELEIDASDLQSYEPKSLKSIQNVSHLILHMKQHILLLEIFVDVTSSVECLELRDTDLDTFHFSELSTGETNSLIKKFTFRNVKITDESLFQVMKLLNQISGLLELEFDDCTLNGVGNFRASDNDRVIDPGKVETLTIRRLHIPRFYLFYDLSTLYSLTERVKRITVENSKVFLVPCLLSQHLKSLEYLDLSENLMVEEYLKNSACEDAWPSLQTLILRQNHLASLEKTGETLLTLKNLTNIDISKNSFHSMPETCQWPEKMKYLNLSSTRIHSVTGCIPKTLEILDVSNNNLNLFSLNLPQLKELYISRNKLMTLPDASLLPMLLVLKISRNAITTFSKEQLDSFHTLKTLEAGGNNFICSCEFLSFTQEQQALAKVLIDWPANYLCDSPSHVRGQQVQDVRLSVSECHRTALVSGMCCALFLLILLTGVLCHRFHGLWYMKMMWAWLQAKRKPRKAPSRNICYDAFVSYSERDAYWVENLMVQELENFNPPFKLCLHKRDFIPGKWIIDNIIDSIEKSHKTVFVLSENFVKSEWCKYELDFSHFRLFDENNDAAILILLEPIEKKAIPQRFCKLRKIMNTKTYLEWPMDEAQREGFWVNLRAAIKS
T2 sequence (Q15399 whole entry): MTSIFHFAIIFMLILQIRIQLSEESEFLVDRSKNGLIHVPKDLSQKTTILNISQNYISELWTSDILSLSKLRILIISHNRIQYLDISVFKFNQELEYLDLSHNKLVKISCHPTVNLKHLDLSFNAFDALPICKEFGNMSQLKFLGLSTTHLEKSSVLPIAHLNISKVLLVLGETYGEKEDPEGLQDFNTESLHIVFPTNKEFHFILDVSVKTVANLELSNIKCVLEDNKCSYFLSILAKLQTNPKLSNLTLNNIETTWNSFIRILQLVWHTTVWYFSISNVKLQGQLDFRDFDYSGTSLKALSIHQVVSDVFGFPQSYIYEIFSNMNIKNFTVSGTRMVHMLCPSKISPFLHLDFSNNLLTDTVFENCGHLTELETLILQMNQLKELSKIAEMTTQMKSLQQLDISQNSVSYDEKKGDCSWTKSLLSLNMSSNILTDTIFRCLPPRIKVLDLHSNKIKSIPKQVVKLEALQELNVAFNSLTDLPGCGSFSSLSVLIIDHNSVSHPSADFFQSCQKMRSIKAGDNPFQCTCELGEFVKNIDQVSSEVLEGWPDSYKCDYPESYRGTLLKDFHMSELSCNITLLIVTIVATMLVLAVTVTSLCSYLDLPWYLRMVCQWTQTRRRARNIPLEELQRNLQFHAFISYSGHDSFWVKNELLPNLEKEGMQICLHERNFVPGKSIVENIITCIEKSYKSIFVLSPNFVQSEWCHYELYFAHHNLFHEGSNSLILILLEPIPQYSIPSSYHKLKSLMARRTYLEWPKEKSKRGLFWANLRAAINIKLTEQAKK

Molecule: C=C1[C@@H](C)[C@H]2[C@H](Cc3ccccc3)NC(=O)[C@]23[C@H](OC(C)=O)/C=C/[C@@](C)(O)C(=O)[C@@H](C)C/C=C/[C@H]3[C@@H]1O
inhibition [1]: Active

Molecule: H-ENLMVEEY-OH
inhibition [4]: 66%

Molecule: H-ENLMVEEYLK-OH
Activity [5]: 70.2%
inhibition [6]: 50%
inhibition [7]: Active
IC50 [8]: 45.8 µM
inhibition [8]: Dose-dependent effect
Activity [9]: 80%
inhibition [10]: inactive
inhibition [11]: Active
Activity [12]: Non-Toxic
inhibition [13]: inactive
inhibition [14]: Active
inhibition [15]: inactive
inhibition [16]: Active
Activity [17]: Non-Toxic
inhibition [18]: inactive
Activity [19]: Non-Toxic
Activity [20]: 727 pg/mL
inhibition [21]: inactive
Activity [22]: 51%
inhibition [23]: Active

Molecule: H-RLHIPRFYL-OH
inhibition [4]: 81.9%

Molecule: H-TIRRLHIPR-OH
inhibition [4]: 84.1%

Molecule: H-VVSDVFGFP-OH
inhibition [4]: Active

Further lines, with some results ahead:

inhibition [2]: Active
inhibition [3]: Active
Molecule: Cc1cc(NC(=O)NC(=O)c2ccccc2N(C)C)ccc1Oc1ncc(Br)cn1

inhibition [4]: Active
Molecule: H-ENSKVFLVPC-OH

inhibition [4]: 56%
Molecule: H-HIPRFYLFY-OH

Activity [5]: 37.4%
inhibition [6]: 50%
inhibition [7]: Active
IC50 [8]: 49.2 µM
inhibition [8]: Dose-dependent effect
Activity [9]: 70%
inhibition [10]: inactive
inhibition [11]: Active
inhibition [13]: inactive
inhibition [14]: Active
inhibition [15]: inactive
inhibition [16]: Active
inhibition [24]: Active
inhibition [18]: inactive
inhibition [21]: inactive
Activity [22]: 51%
inhibition [23]: Active
Molecule: H-HIPRFYLFYD-OH
Activity [12]: Non-Toxic
Activity [17]: Non-Toxic
Activity [19]: Non-Toxic

inhibition [4]: 56%
Molecule: H-LHIPRFYLFYD-OH

inhibition [4]: 56%
Molecule: H-SENLMVEEYLK-OH

inhibition [4]: 86%
Molecule: H-VETLTIRRL-OH
